{"source": "patent US4401604A", "about": "“Process for preparing thiosulfenamide derivatives of N-phosphonomethylglycine triesters” (Monsanto Company, priority 1981, dated 1983)", "assay_in_all_cases": "Post-emergence herbicidal activity, greenhouse", "format_in_all_cases": "in vivo", "key": {"Wild Buckwheat": {"test_system": "Wild Buckwheat", "conditions": "Table II", "description": "(§1) A good grade of top soil is placed in aluminum pans having holes in the bottom and compacted to a depth of 0.95 to 1.27 cm. from the top of the pan. A predetermined number of seeds of each of several dicotyledonous and monocotyledonous annual plant species and/or vegetative propagules for the perennial plant species are placed on the soil and pressed into the soil surface. The seeds and/or vegetative propagules are covered with soil and leveled. The pans are then placed on a sand bench in the greenhouse and watered from below as needed. After the plants reach the desired age (two to three weeks), each pan except for the control pans is removed individually to a spraying chamber and sprayed by means of an atomizer operating at a positive air pressure of approximately 1.46 kg/cm^2 absolute. The atomizer contains 6 ml. of a solution or suspension of the chemical. In that 6 ml., is an amount of a cyclohexanone emulsifying agent mixture to give a spray solution or suspension which contains about 0.4% by weight of the emulsifier. The spray solution or suspension contains a sufficient amount of the candidate chemical in order to give application rates corresponding to those set forth in the tables. The spray solution is prepared by taking an aliquot of a 1.0% by weight stock solution or suspension of the candidate chemical in an organic solvent such as acetone or tetrahydrofuran or in water. The emulsifying agent employed is a mixture comprising 35 weight percent butylamine dodecylbenzene sulfonate and 65 weight percent of a tall oil ethylene oxide condensate having about 11 moles of ethylene oxide per mole of tall oil. The pans are returned to the greenhouse and watered as before and the injury to the plants as compared to the control is observed at approximately two and four weeks as indicated in the tables under WAT and the results recorded. In some instances, the two-week observations are omitted.\n(§2) The post-emergence herbicidal activity index used in Table I is as follows:\n(§3) The plant species utilized in these tests are identified by letter in accordance with the following legend: […]"}, "Downy Brome": {"test_system": "Downy Brome", "description": "as §1, §2, §3"}, "Barnyardgrass": {"test_system": "Barnyardgrass", "description": "as §1, §2, §3"}, "Hemp Sesbania": {"test_system": "Hemp Sesbania", "conditions": "Table II", "description": "as §1, §2, §3"}, "Soybean": {"test_system": "Soybean", "conditions": "Table II", "description": "as §1, §2, §3"}, "Crabgrass": {"test_system": "Crabgrass", "conditions": "Table II", "description": "as §1, §2, §3"}, "Cocklebur": {"test_system": "Cocklebur", "description": "as §1, §2, §3"}, "Wheat": {"test_system": "Wheat", "conditions": "Table II", "description": "as §1, §2, §3"}, "Sugar Beet": {"test_system": "Sugar Beet", "conditions": "Table II", "description": "as §1, §2, §3"}, "Morningglory": {"test_system": "Morningglory", "description": "as §1, §2, §3"}, "Sorghum": {"test_system": "Sorghum", "conditions": "Table II", "description": "as §1, §2, §3"}}, "data": [{"smiles": "COC(=O)CN(CP(=O)(Oc1ccccc1OC)Oc1ccccc1OC)SSc1cccc(C(F)(F)F)c1", "note": "[V]", "values": [{"measurement": "post-emergence herbicidal activity index", "setting": "Wild Buckwheat; 0.28 kg/h, 2 WAT", "result": "0 (0- 24% control)"}, {"measurement": "post-emergence herbicidal activity index", "setting": "Wild Buckwheat; 1.12 kg/h, 4 WAT", "result": "0 (0- 24% control)"}, {"measurement": "post-emergence herbicidal activity index", "setting": "Wild Buckwheat; 5.6 kg/h, 4 WAT", "result": "0 (0- 24% control)"}, {"measurement": "post-emergence herbicidal activity index", "setting": "Downy Brome; Table I, 5.6 kg/h, 4 WAT", "result": "1 (25-49% control)"}, {"measurement": "post-emergence herbicidal activity index", "setting": "Downy Brome; Table I, 11.2 kg/h, 4 WAT", "result": "1 (25-49% control)"}, {"measurement": "post-emergence herbicidal activity index", "setting": "Downy Brome; Table II, 0.28 kg/h, 2 WAT", "result": "0 (0- 24% control)"}, {"measurement": "post-emergence herbicidal activity index", "setting": "Downy Brome; Table II, 1.12 kg/h, 4 WAT", "result": "0 (0- 24% control)"}, {"measurement": "post-emergence herbicidal activity index", "setting": "Downy Brome; Table II, 5.6 kg/h, 4 WAT", "result": "0 (0- 24% control)"}, {"measurement": "post-emergence herbicidal activity index", "setting": "Barnyardgrass; Table I, 5.6 kg/h, 4 WAT", "result": "3 (75-99% control)"}, {"measurement": "post-emergence herbicidal activity index", "setting": "Barnyardgrass; Table I, 11.2 kg/h, 4 WAT", "result": "3 (75-99% control)"}, {"measurement": "post-emergence herbicidal activity index", "setting": "Barnyardgrass; Table II, 0.28 kg/h, 2 WAT", "result": "0 (0- 24% control)"}, {"measurement": "post-emergence herbicidal activity index", "setting": "Barnyardgrass; Table II, 1.12 kg/h, 4 WAT", "result": "0 (0- 24% control)"}, {"measurement": "post-emergence herbicidal activity index", "setting": "Barnyardgrass; Table II, 5.6 kg/h, 4 WAT", "result": "3 (75-99% control)"}, {"measurement": "post-emergence herbicidal activity index", "setting": "Hemp Sesbania; 0.28 kg/h, 2 WAT", "result": "0 (0- 24% control)"}, {"measurement": "post-emergence herbicidal activity index", "setting": "Hemp Sesbania; 1.12 kg/h, 4 WAT", "result": "2 (50-74% control)"}, {"measurement": "post-emergence herbicidal activity index", "setting": "Hemp Sesbania; 5.6 kg/h, 4 WAT", "result": "1 (25-49% control)"}, {"measurement": "post-emergence herbicidal activity index", "setting": "Soybean; 0.28 kg/h, 2 WAT", "result": "0 (0- 24% control)"}, {"measurement": "post-emergence herbicidal activity index", "setting": "Soybean; 1.12 kg/h, 4 WAT", "result": "0 (0- 24% control)"}, {"measurement": "post-emergence herbicidal activity index", "setting": "Soybean; 5.6 kg/h, 4 WAT", "result": "1 (25-49% control)"}, {"measurement": "post-emergence herbicidal activity index", "setting": "Crabgrass; 0.28 kg/h, 2 WAT", "result": "0 (0- 24% control)"}, {"measurement": "post-emergence herbicidal activity index", "setting": "Crabgrass; 1.12 kg/h, 4 WAT", "result": "2 (50-74% control)"}, {"measurement": "post-emergence herbicidal activity index", "setting": "Crabgrass; 5.6 kg/h, 4 WAT", "result": "3 (75-99% control)"}, {"measurement": "post-emergence herbicidal activity index", "setting": "Cocklebur; Table I, 5.6 kg/h, 4 WAT", "result": "2 (50-74% control)"}, {"measurement": "post-emergence herbicidal activity index", "setting": "Cocklebur; Table I, 11.2 kg/h, 4 WAT", "result": "3 (75-99% control)"}, {"measurement": "post-emergence herbicidal activity index", "setting": "Cocklebur; Table II, 0.28 kg/h, 2 WAT", "result": "0 (0- 24% control)"}, {"measurement": "post-emergence herbicidal activity index", "setting": "Cocklebur; Table II, 1.12 kg/h, 4 WAT", "result": "1 (25-49% control)"}, {"measurement": "post-emergence herbicidal activity index", "setting": "Cocklebur; Table II, 5.6 kg/h, 4 WAT", "result": "3 (75-99% control)"}, {"measurement": "post-emergence herbicidal activity index", "setting": "Wheat; 0.28 kg/h, 2 WAT", "result": "0 (0- 24% control)"}, {"measurement": "post-emergence herbicidal activity index", "setting": "Wheat; 1.12 kg/h, 4 WAT", "result": "1 (25-49% control)"}, {"measurement": "post-emergence herbicidal activity index", "setting": "Wheat; 5.6 kg/h, 4 WAT", "result": "3 (75-99% control)"}, {"measurement": "post-emergence herbicidal activity index", "setting": "Sugar Beet; 0.28 kg/h, 2 WAT", "result": "0 (0- 24% control)"}, {"measurement": "post-emergence herbicidal activity index", "setting": "Sugar Beet; 1.12 kg/h, 4 WAT", "result": "2 (50-74% control)"}, {"measurement": "post-emergence herbicidal activity index", "setting": "Sugar Beet; 5.6 kg/h, 4 WAT", "result": "2 (50-74% control)"}, {"measurement": "post-emergence herbicidal activity index", "setting": "Morningglory; Table I, 5.6 kg/h, 4 WAT", "result": "1 (25-49% control)"}, {"measurement": "post-emergence herbicidal activity index", "setting": "Morningglory; Table I, 11.2 kg/h, 4 WAT", "result": "2 (50-74% control)"}, {"measurement": "post-emergence herbicidal activity index", "setting": "Morningglory; Table II, 0.28 kg/h, 2 WAT", "result": "0 (0- 24% control)"}, {"measurement": "post-emergence herbicidal activity index", "setting": "Morningglory; Table II, 1.12 kg/h, 4 WAT", "result": "1 (25-49% control)"}, {"measurement": "post-emergence herbicidal activity index", "setting": "Morningglory; Table II, 5.6 kg/h, 4 WAT", "result": "1 (25-49% control)"}, {"measurement": "post-emergence herbicidal activity index", "setting": "Sorghum; 0.28 kg/h, 2 WAT", "result": "0 (0- 24% control)"}, {"measurement": "post-emergence herbicidal activity index", "setting": "Sorghum; 1.12 kg/h, 4 WAT", "result": "0 (0- 24% control)"}, {"measurement": "post-emergence herbicidal activity index", "setting": "Sorghum; 5.6 kg/h, 4 WAT", "result": "0 (0- 24% control)"}]}]}
